Measurements as given in patent publication US20120003661A1, “METHODS AND DEVICES FOR THE SELECTIVE DETECTION OF MICROORGANISMS” (C3 JIAN, INC., priority 2010, published 2012).
Entries after “also recorded” stand apart in the source; their conditions may differ.

test system: bacteria, fungi, and/or yeasts; assay type: binding; conditions: microorganism(s) listed as target(s) of the targeting peptide; wrapped target lists given cell by cell

Substance | Target(s)
PF-010 (MDIDVNKLLQAFVYFKSFEKLRHNNS) | S. epidermidis, M. luteus, E. coli,; also recorded: C. albicans
1T-297 (RSLRLNNALTKLPKLWYNRIKEAFYAYNDYDK) | A. naeslundii, F. nucleatum, T. denticola,; also recorded: S. mitis, S. mutans, S. oralis
1T-298 (ILNKKPKLPLWKLGKNYFRRFYVLPTFLA) | A. naeslundii, F. nucleatum, P. gingivalis,; also recorded: T. denticola, S. gordonii,; also recorded: S. mitis, S. mutans, S. oralis,; also recorded: S. salivarious, S. sanguinis
PF-070 (SMVKSEIVDLLNGEDNDD) | S. epidermidis, C. jejuni
PF-047 (NQEPSLQQDKEQKDNKG) | S. mutans
1T-272 (QLAPIDKQLKAVKKIAFYESESTAAKAVTVA) | F. nucleatum, S. mutans, S. oralis,; also recorded: S. sanguinis
PF-045 (LDINDYRSTY) | S. epidermidis, E. coli, E. faecalis,; also recorded: C. jejuni
PF-631 (LIIYFSKTGNTARATRQI) | yeast and hyphal forms
TT-307 (NGDKKAKEELDKWDEVIKELNIQF) | F. nucleatum
PF-064 (DYYGKE) | E. coli
Rv2660c (RSPDFVDETAGQSWCAILGLNQFH) | C. albicans
PF-104 (ERTAVNDLWI) | MRSA, C. jeikeium
1T-261 (SFEKNKIENNLKIAQAYIYIKPKPRICQA) | F. nucleatum, S. mutans, S. oralis,; also recorded: S. sanguinis
1T-286 (LGFFNNKADLVKADTERDNRMSSLKIKDL) | S. sanguinis
1T-292 (IINQLNLILLRLMEILIL) | A. naeslundii, F. nucleatum, P. gingivalis,; also recorded: S. epidermidis, S. gordonii,; also recorded: S. mitis, S. mutans, S. oralis,; also recorded: S. salivarious, S. sanguinis
PF-621 (PPSSFLV) | yeast and hyphal forms
PF-001 (MNNWIIVAQLSVTVINEIIDIMKEKQKGGK) | S. epidermidis, M. luteus, P. mirabilis,; also recorded: E. coli, P. aeruginosa,; also recorded: C. albicans, MRSA, E. faecalis,; also recorded: C. jeikeium
PF-009 (SKKYNHILNQENR) | yeast and hyphal forms; also recorded: M. luteus, P. mirabilis, C. albicans
1T-258 (TINIDDKVLDYLKKINSKAITIDLIGCAS) | A. naeslundii, F. nucleatum, P. gingivalis,; also recorded: T. denticola, S. mitis,; also recorded: S. mutans, S. oralis

Substance | Target(s)
PF-056 (AEQLFGKQKQRGVDLFLNRLTIILSILFFVLMICISYLGM) | S. epidermidis, M. luteus, P. mirabilis,; also recorded: E. coli, P. aeruginosa,; also recorded: C. albicans, MRSA, S. pneumoniae,; also recorded: E. faecalis, C. jeikeium
PF-052 (QELINEAVNLLVKSK) | S. epidermidis, M. luteus, E. coli,; also recorded: MRSA, E. faecalis, C. jeikeium,; also recorded: C. jejuni
Rv1535 (DPLVDGAARLLSIPLRHLYAALWRVGLLEVQA) | C. albicans
1T-256 (KGKSLMPLLKQINQWGKLYL) | S. sanguinis
1T-280 (TNNKNKVIIKAIKFKNKDFINLDLFIYRR) | A. naeslundii, F. nucleatum, P. gingivalis,; also recorded: T. denticola, S. gordonii,; also recorded: S. mitis, S. mutans, S. oralis,; also recorded: S. salivarious, S. sanguinis
PF-169 (APGSAADSPRSRADD) | S. epidermidis, E. coli, C. albicans,; also recorded: E. faecalis, C. jeikeium
PF-071 (HCVIGNVVDIANLLKRRAVYRDIADVIKMR) | S. epidermidis, E. coli, P. aeruginosa,; also recorded: C. albicans, MRSA,; also recorded: S. pneumoniae, E. faecalis, C. jeikeium,; also recorded: C. jejuni
PF-041 (ELLVILPGFI) | MRSA
1T-287 (KGYPLPFQYRLNNH) | P. gingivalis, T. denticola, S. gordonii,; also recorded: S. mitis, S. mutans, S. oralis,; also recorded: S. salivarious, S. sanguinis
PF-020 (MKIILLLFLIFGFIVVVTLKSEHQLTLFSI) | S. epidermidis, M. luteus, C. albicans,; also recorded: MRSA, S. pneumoniae,; also recorded: E. faecalis
PF-145 (GIVLTGRAGLVSGACSMALGVGLG) | S. epidermidis, M. luteus, P. mirabilis,; also recorded: E. coli, P. aeruginosa,; also recorded: C. albicans, MRSA, S. pneumoniae,; also recorded: E. faecalis, C. jeikeium,; also recorded: C. jejuni, M. smegmatis
PF-171 (TQVTLCRTW) | S. epidermidis, E. coli, P. aeruginosa,; also recorded: S. pneumoniae
PF-015 (SIDKRNLYNLKYYE) | E. faecalis, C. jeikeium
PF-152 (VGYFIWKDSHSRKG) | S. epidermidis, C. albicans,; also recorded: MRSA, E. faecalis, C. jeikeium
PF-132 (RPGDGAAEQGRSR) | S. epidermidis, C. jeikeium
PF-060 (HSSHL) | C. albicans hyphae; also recorded: E. coli, C. albicans, C. jeikeium
PF-042 (LLLSYFRYTGALLQSLF) | S. epidermidis, M. luteus, P. mirabilis,; also recorded: E. coli, P. aeruginosa,; also recorded: C. albicans, MRSA, S. pneumoniae,; also recorded: E. faecalis, C. jeikeium
PF-124 (MADGQIAAIAKLHGVPVATRNIRHFQSFGVELINPWSG) | S. epidermidis, M. luteus, P. mirabilis,; also recorded: E. coli, P. aeruginosa,; also recorded: C. albicans, MRSA, E. faecalis,; also recorded: C. jejuni
PF-101 (DPVPERQEQACACHRTAKPGK) | S. mutans

same assay, conditions: microorganism(s) that the targeting peptide binds, as listed in Table 2

Substance | Target(s)
PF-C091 (ASNTPRFVRLTLFNFYSKIWNVTHLFLFNNL) | A. naeslundii, F. nucleatum, P. gingivalis,; also recorded: S. mutans, T. denticola
PF-S026 (TELKYNGEEYLLLTQRDILAVIEK) | S. epidermidis, MRSA, C. jeikeium
PF-S007 (VVAGVVLLTALAVGSKRKEKKQIKEIQRLLAATR) | S. epidermidis, MRSA
PF-789 (PRGAQSGHG) | Mycobacteria spp.
PF-C050 (QGLARPVLRRIPL) | A. naeslundii, S. mutans
PF-C160 (AASGFTYCASNGVWHPY) | F. nucleatum
PF-C095 (LLALNMNEDTYYFELFFIFDNQNKKWLIFDLKERG) | A. naeslundii, F. nucleatum, P. gingivalis,; also recorded: S. mutans
PF-C075 (KALVISVFAIVFSIIFVKFFYWRDKK) | A. naeslundii, F. nucleatum, P. gingivalis,; also recorded: S. mutans, T. denticola
PF-C093 (EKLGTMV) | A. naeslundii, F. nucleatum, S. mutans
PF-C086 (ELFFTILSDCNELFLLHLLQQPLFYIKKGK) | A. naeslundii, F. nucleatum, P. gingivalis,; also recorded: S. mutans, T. denticola
PF-C271 (FFPSYYSIIITYF) | A. naeslundii, F. nucleatum, P. gingivalis,; also recorded: S. mutans, T. denticola
PF-C291 (HPFLTGTGCPLFLIFRLFFVKAYFSFTVF) | A. naeslundii, F. nucleatum, P. gingivalis,; also recorded: S. mutans

same assay, conditions: microorganism(s) the targeting peptide binds, as listed in Table 2

Substance | Target(s)
1T-136 (ELLTQIRLALLYSVNEW) | A. naeslundii, F. nucleatum, P. gingivalis,; also recorded: S. epidermidis, S. gordonii,; also recorded: S. mitis, S. mutans, S. oralis,; also recorded: S. salivarious, S. sanguinis
1T-99 (MKAWLGQ) | S. gordonii, S. mitis, S. mutans,; also recorded: S. oralis, S. sanguinis
1T-22 (VPLDDGTRRPEVARNRDKDRED) | S. epidermidis, P. aeruginosa
1T-171 (SVRAVKPIDKTVARHFPGDFIVN) | A. naeslundii, F. nucleatum, P. gingivalis,; also recorded: S. epidermidis, S. gordonii,; also recorded: S. mitis, S. mutans, S. oralis,; also recorded: S. salivarious, S. sanguinis
1T-166 (AQSAGQIKRKSKVRIHV) | A. naeslundii, F. nucleatum, P. gingivalis,; also recorded: S. epidermidis, S. gordonii,; also recorded: S. mitis, S. mutans, S. oralis,; also recorded: S. salivarious, S. sanguinis
1T-60 (YLTSLGLDAAEQAQGLLTILKG) | S. aureus, S. epidermidis, C. jeikeium,; also recorded: C. striatum, P. aeruginosa
1T-55 (NHKTLKEWKAKWGPEAVESWATLLG) | C. xerosis, P. aeruginosa
1T-179 (TCYPLIQRKTDRAYEA) | A. naeslundii, F. nucleatum, P. gingivalis,; also recorded: T. denticola, S. gordonii,; also recorded: S. mitis, S. mutans, S. oralis,; also recorded: S. salivarious, S. sanguinis
1T-50 (HSDEPIPNILFKSDSVH) | P. aeruginosa
1T-216 (FFLNVIAIRIPHF) | S. sanguinis
1T-56 (LALIGAGIWMIRKG) | C. xerosis, P. aeruginosa
1T-164 (KKSHSQGKRKLKDLNSAYKIDNQLHYALR) | A. naeslundii, F. nucleatum, P. gingivalis,; also recorded: S. epidermidis, S. gordonii,; also recorded: S. mitis, S. mutans, S. oralis,; also recorded: S. salivarious, S. sanguinis
1T-34 (AFWLNILLTLLGYIPGIVHAVYIIAKR) | S. aureus, S. epidermidis, C. jeikeium,; also recorded: C. xerosis, C. striatum,; also recorded: P. aeruginosa
1T-110 (LAAKTAVCVGRAFM) | A. naeslundii, P. gingivalis, S. epidermidis,; also recorded: S. gordonii, S. mitis,; also recorded: S. mutans, S. oralis, S. sanguinis
1T-121 (FAKETGFGIGGAQEGWWIIADIYGPNPF) | S. gordonii, S. mitis, S. mutans,; also recorded: S. oralis, S. salivarious, S. sanguinis
1T-118 (TASPPAPSDQGLRTAFPATLLIALAALARISR) | A. naeslundii, F. nucleatum, P. gingivalis,; also recorded: S. epidermidis, S. gordonii,; also recorded: S. mitis, S. mutans, S. oralis,; also recorded: S. salivarious, S. sanguinis
1T-40 (QRVSLWSEVEHEFR) | S. mutans, P. aeruginosa
1T-91 (TSVRPGAAGAAVPAGAAGAAGAGWRWP) | S. mitis, S. mutans, S. oralis, S. sanguinis
1T-104 (RAVAAHLQGRHHGHQVRRQRHGQR) | S. mitis
1T-132 (YSKKLFEYFYFIIFILIRYLIFYKIIQNKNYYINNIAYN) | A. naeslundii, F. nucleatum, P. gingivalis,; also recorded: S. epidermidis, S. gordonii,; also recorded: S. mitis, S. mutans, S. oralis,; also recorded: S. salivarious, S. sanguinis
1T-123 (LVRRNAVAGRSDGLAGAEQLDLVRLQGVL) | S. gordonii
1T-158 (WENKPSPLGSIKKLQGLVYRLIGYRHFWV) | A. naeslundii, F. nucleatum, P. gingivalis,; also recorded: S. epidermidis, S. gordonii,; also recorded: S. mitis, S. mutans, S. oralis,; also recorded: S. salivarious, S. sanguinis
1T-242 (KQVQNTTLIICGTVLLGILFKSYLKSQKSV) | F. nucleatum, S. sanguinis
1T-106 (DALRRSRSQGRRHR) | S. gordonii, S. mitis, S. mutans,; also recorded: S. oralis, S. salivarious
